Data reported in patent publication US20220071924A1, “TREATMENT OF OCULAR DISEASES WITH OPHTHALMIC TAPINAROF COMPOSITIONS” (Sol-Gel Technologies Ltd., priority 2019, published 2022).

System: Demodex folliculorum
Experiment: In vitro killing of live Demodex on epilated eyelashes, observed by light microscopy over 90 minutes
Conditions: for Kill Rate: 90 min observation; for Average Time to Death: value 90 denotes no effect
Text: In Vitro Activity of Tapinarof Based Formulations in Killing Demodex folliculorum The purpose of this study is to evaluate the effectiveness of a composition comprising Tapinarof in killing Demodex for clinical treatment. […] Following informed consent, one to four lashes with significant cylindrical dandruff were selected for epilation. Lashes were firmly grasped near the base and gently teased out with a slow circular motion to prevent cylindrical dandruff and Demodex from being left behind on the lid margin. Epilated lashes were then placed onto a glass slide and the number of live organisms under light microscopy was then recorded. Lashes with live Demodex were then included in the study. Each lash obtained was then assigned to one of 13 study reagents (Table 1). […] Observation of the study material with the Demodex took place over 90 minutes with checks under light microscopy every five minutes for cessation of Demodex activity. Organism death was recorded when all rotary movement of Demodex appendages ceased. At least five lashes with live Demodex were evaluated for each reagent. Results were recorded in Microsoft Excel and statistical analysis for significant differences in average time to death were done with two-tailed t-test using the same software (Table 1). The value 90 was used to denote no effect.

[1] = reagent at 50%, checks every 5 min
[2] = reagent at 80%, checks every 5 min
[3] = tapinarof 0.1% in 50% isopropyl alcohol
[4] = tapinarof 0.5% in 50% isopropyl alcohol
[5] = tapinarof 1% in 50% isopropyl alcohol

| Compound | Kill Rate [1] [%] | Average Time to Death (reagent at 50%) [min] | Kill Rate [2] [%] | Average Time to Death (reagent at 80%) [min] | further results |
| --- | --- | --- | --- | --- | --- |
| CC#N [Acetonitrile] | 88 | 31.43 | 100 | 5.83 |  |
| CC(C)=O [Acetone] | 33 | 82.5 | 29 | 9.7 |  |
| CCO [Ethanol] | 100 | 33.64 |  |  |  |
| CC(C)O [Isopropyl alcohol] | 0 | >90 |  |  |  |
| CCOCCOCCO [Transcutol] | 100 | 35 | 100 | 15 |  |
| CC(C)c1c(O)cc(/C=C/c2ccccc2)cc1O [Tapinarof, 3,5-dihydroxy-4-isopropyl-trans-stilbene] |  |  |  |  | Kill Rate [3]: 8%; Average Time to Death [3]: 80 min; Kill Rate [4]: 29%; Average Time to Death [4]: 10.82 min; Kill Rate [5]: 33%; Average Time to Death [5]: 60 min; in vitro killing effect against Demodex mites (in words) (tapinarof at the 0.1% concentration (p=0.34)): a significant effect was not observed; in vitro killing effect against Demodex mites (in words) (tapinarof at the 0.5% and 1% concentrations): moderate in vitro killing effect |
